In patent US9321750B2, “ROR modulators and their uses” (INNOV17 LLC, priority 2012, dated 2016):

Columns and labels:
IL-17A = test: TH17 cytokine inhibition as measured by ELISA: IL-17A; assay type: cell-based; details: 120 h; human TH17 cells, 5 days differentiation, ELISA of supernatant
Procedure: (§1) Peripheral blood mononuclear cells (PBMCs) were sourced from freshly prepared leukocyte enriched plasma (buffy coat) from healthy volunteers from which PBMCs were isolated by density gradient centrifugation using Ficoll-Paque™ PLUS (GE Healthcare). Naïve CD4+ T cells were isolated using the Naïve CD4+ T cell Isolation Kit II (Miltenyi Biotec) as per manufacturer's instructions. CD4+ T cells were plated at 5×10^4 cells/well in 96 well plates pre-coated with immobilized human (h)-αCD3 antibody (eBioscience) then differentiated to TH17 cells using h-αCD28, h-αIFNγ, h-αIL4, h-IL6, h-IL23, h-IL1β, h-TGFβ1 (eBioscience) and maintained in a cell culture incubator at 37° C. with 5% CO2 in TexMACS Medium (Miltenyi Biotec) supplemented with 1% Penicillin/Streptomycin (Lonza) over 5 days.
(§2) Human CD4+ T cells were differentiated to TH17 cells as described in the presence or absence of various concentrations of compounds in a final concentration of 0.1% DMSO in TexMACS medium. Supernatants were collected and stored at −20° C. until they were to be assayed for IL-17A, IL-17F, IL-17AF, IL-21 and/or IL-22 levels as determined by Ready-Set-Go ELISA kits (eBioscience) as per manufacturer's instructions. Endpoint absorbance was read at 450 nm and 570 nm according to manufacturer's instructions (eBioscience) using a microplate reader (Perkin Elmer). The percentage of cytokine inhibition was calculated with reference to DMSO treated cells and the IC50s were determined by GraphPad Prism software and presented in the table below.

IL-17F = test: TH17 cytokine inhibition as measured by ELISA: IL-17F; assay type: cell-based; details: 120 h; human TH17 cells, 5 days differentiation, ELISA of supernatant
Procedure: as §1, §2

IL-22 = test: TH17 cytokine inhibition as measured by ELISA: IL-22; assay type: cell-based; details: 120 h; human TH17 cells, 5 days differentiation, ELISA of supernatant
Procedure: as §1, §2

[1] = TH17 cell viability (Prestoblue); assay type: cell-based; set-up: concentration or dose not given beside the values; details: human; percentage of DMSO treated cells; read-out: % viability of compound treated TH17 cells
Procedure: as §1
Cells were assayed for viability in the presence or absence of compound using Prestoblue® Cell Viability Reagent (Life Technologies) as per manufacturer's instructions after 30 minutes incubation of TH17 cells with reagent. Absorbance was measured at 570 nm and 600 nm using a microplate reader (Perkin Elmer) and data were analyzed as per manufacturer's instructions. Cell viability was expressed as a percentage of DMSO treated cells.

TH17 cells = test: TH17 cellular proliferation (Prestoblue); assay type: cell-based; details: Homo sapiens, 120 h; 3 μM compound, after 5 day TH17 differentiation, relative to DMSO treated TH17 cells; read-out: % change in TH17 cell number
Procedure: as §1
Cellular proliferation was assessed in the presence or absence of 3 μM compound using Prestoblue® Cell Viability Reagent (Life Technologies) as per manufacturer's instructions using absorbance as the output measured by a microplate reader (Perkin Elmer) after 30 minutes of incubation of cells and reagent. A standard curve developed by plotting varying cell numbers versus absorbance was used to assess differences in cellular proliferation between compound treated or untreated cells after the 5 day TH17 differentiation period.

IL-23R = test: Real-time qRT-PCR in TH17 cells: IL-23R gene expression; assay type: cell-based, human; set-up: key: A: No change in gene expression observed relative to DMSO treated Th17 cells; B: Decreased gene expression observed relative to DMSO treated Th17 cells; C: Increased gene expression observed relative to DMSO treated Th17 cells
Procedure: as §1
RNA was isolated from TH17 cells and cDNA was synthesized using the Verso cDNA kit (Thermo Scientific) as per manufacturer's instructions. IL-17A, IL-17F, IL-21, IL-22, G-CSF, IL-23R and FOXP3 gene expression were determined for compound treated and untreated TH17 cell samples using Solaris qPCR Gene expression assays (Thermo Scientific) with an iCycler iQ Real-Time PCR Detection System (Bio-Rad). Individual gene expression was normalized to a panel of six reference genes (ACTB, TBP, HPRT1, PGK1, TFRC and PPIA) (Thermo Scientific) and analyzed by REST 2009 (Qiagen) in accordance to MIQE guidelines (Bustin et al. (2009) Clin. Chem, 55:611-622). The effects of compounds on TH17 cytokine mRNA levels are presented as fold change in gene expression of compound treated TH17 cells relative to DMSO treated cells in the table below.

RORγ LBD [2] = target: T1, RORγ LBD (Homo sapiens (Human), UniProt P51449); test: RORγ LBD binding (Human RORγ Assay System, INDIGO Biosciences); details: 0.5% DMSO
T1 sequence (P51449 269-508): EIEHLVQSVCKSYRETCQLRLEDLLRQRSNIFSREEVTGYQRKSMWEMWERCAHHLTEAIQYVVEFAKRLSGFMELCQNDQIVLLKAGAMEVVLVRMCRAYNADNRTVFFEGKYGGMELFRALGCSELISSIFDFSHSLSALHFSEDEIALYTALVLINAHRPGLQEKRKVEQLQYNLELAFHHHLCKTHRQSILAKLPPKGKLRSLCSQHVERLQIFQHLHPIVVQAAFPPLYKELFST
Procedure: Compound binding to the human RORγ LBD was assessed using the Human RORγ Assay System (INDIGO Biosciences Inc.) as per manufacturer's instructions.

RORγ LBD [3] = target: T1, RORγ LBD; test: TR-FRET co-activator D22 interaction with RORγ LBD; assay type: biochemical
Excerpt: (§3) The Time-Resolved Fluorescence Resonance Energy Transfer (TR-FRET) assay kit (Life Technologies) was used to measure compound efficacy to disrupt or enhance ligand-mediated interaction of the co-activator and co-repressor peptides with the purified GST-tagged (i) RORγ LBD or (ii) […]. The RORγ LBD and RORα LBD each have a basal level of interaction with the co-activator D22 or co-repressor NCoR1-D2 in the absence of ligand, thus it is possible to identify compounds that inhibit or induce RORγ and/or RORα co-activator/co-repressor interactions, thus determining RORα, RORγ, or RORα/RORγ compound selectivity. The assay was performed as per manufacturer's instructions and TR-FRET was assessed 2 and 20 hours post-assay initiation. Compounds were identified to (i) have no impact on either co-activator displacement or […] from the assessed LBD (ii) promote co-activator displacement from the assessed LBD (iii) promote co-repressor recruitment to the assessed LBD or (iv) concurrently promote co-activator displacement from the assessed LBD and co-repressor recruitment to the assessed LBD.

RORγ LBD [4] = target: T1, RORγ LBD; test: TR-FRET co-repressor NCoR1-D2 interaction with RORγ LBD; assay type: biochemical
Excerpt: as §3

RORα LBD [5] = target: T2, RORα LBD (Homo sapiens (Human), UniProt P35398); test: TR-FRET co-activator D22 interaction with RORα LBD; assay type: biochemical
T2 sequence (P35398 272-510): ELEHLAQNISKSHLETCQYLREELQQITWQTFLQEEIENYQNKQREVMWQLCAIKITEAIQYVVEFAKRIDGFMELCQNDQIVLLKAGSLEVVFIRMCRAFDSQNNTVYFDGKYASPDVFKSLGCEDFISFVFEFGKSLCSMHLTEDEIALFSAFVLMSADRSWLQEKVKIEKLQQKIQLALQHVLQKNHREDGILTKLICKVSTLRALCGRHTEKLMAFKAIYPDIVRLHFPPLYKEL
Excerpt: as §3

RORα LBD [6] = target: T2, RORα LBD; test: TR-FRET co-repressor NCoR1-D2 interaction with RORα LBD; assay type: biochemical
Excerpt: as §3

[7] = 2 hr, read-out: RORγ EC50 D22 co-activator displacement 2 hr
[8] = 20 hr, read-out: RORγ EC50 D22 co-activator displacement 20 hr
[9] = 2 hr, read-out: RORγ EC50 NCoR1-D2 co-repressor recruitment 2 hr
[10] = 20 hr, read-out: RORγ EC50 NCoR1-D2 co-repressor recruitment 20 hr
[11] = 2 hr, read-out: RORα EC50 D22 co-activator displacement 2 hr
[12] = 20 hr, read-out: RORα EC50 D22 co-activator displacement 20 hr
[13] = 2 hr, read-out: RORα EC50 NCoR1-D2 co-repressor recruitment 2 hr
[14] = 20 hr, read-out: RORα EC50 NCoR1-D2 co-repressor recruitment 20 hr

SMILES	IC50 (IL-17A) [µM]	IC50 (IL-17F) [µM]	IC50 (IL-22) [µM]	viability [1] [%]	inhibition at 3 µM (TH17 cells) [%]	Fold change in mRNA level of compound treated TH17 cells relative to DMSO treated cells IL-23R (IL-23R)	IC50 (RORγ LBD [2]) [µM]	EC50 (RORγ LBD [3]; [7]) [µM]	EC50 (RORγ LBD [3]; [8]) [µM]	EC50 (RORγ LBD [4]; [9]) [µM]	EC50 (RORγ LBD [4]; [10]) [µM]	EC50 (RORα LBD [5]; [11]) [µM]	EC50 (RORα LBD [5]; [12]) [µM]	EC50 (RORα LBD [6]; [13]) [µM]	EC50 (RORα LBD [6]; [14]) [µM]
CS(=O)(=O)Nc1ccc2c(c1)CCCN2Cc1ccc(C(O)(C(F)(F)F)C(F)(F)F)cc1 [Example 5, N-(1-(4-(1,1,1,3,3,3-hexafluoro-2-hydroxypropan-2-yl)benzyl)-1,2,3,4-tetrahydroquinolin-6-yl)methanesulfonamide]	< 10	< 10	< 10	> 80	≤ 50	B	< 10	> 30	< 30	< 30	< 30	< 30	< 30	< 30	< 30
CC(=O)Nc1ccc2c(c1)CCCN2Cc1ccc(C(O)(C(F)(F)F)C(F)(F)F)cc1 [Example 2, N-(1-(4-(1,1,1,3,3,3-hexafluoro-2-hydroxypropan-2-yl)benzyl)-1,2,3,4-tetrahydroquinolin-6-yl)acetamide]	< 10	< 10	< 10	> 80	≤ 50	A	< 10	< 30	< 30	> 30	> 30	< 30	> 30	> 30	> 30
CC(=O)Nc1ccc2c(c1)CCN2Cc1ccc(C(O)(C(F)(F)F)C(F)(F)F)cc1 [Example 4, N-(1-(4-(1,1,1,3,3,3-hexafluoro-2-hydroxypropan-2-yl)benzyl)indolin-5-yl)acetamide]	< 10	< 10	< 10	> 80	> 50	B	< 10	< 30	< 30	< 30	< 30	> 30	> 30	> 30	> 30
